Where a name gives a salt, the structure may show the parent alone.
Legend:
[1] = target: T1, human GLP-1R (Homo sapiens, UniProt P43220, G168S); assay: CHO GLP-1R Clone H6 - Assay 1 (HTRF cAMP agonist assay); format: cell-based; conditions: for EC50: CHO Clone H6, high GLP-1R density, cAMP, geometric mean; for Emax / Assay 1 Emax (%): CHO Clone H6, relative to saturating full agonist GLP-1 7-36 (1 μM), arithmetic mean
T1 construct: expressed in transfected cells
Experimental: GLP-1R-mediated agonist activity was determined with a cell-based functional assay utilizing an HTRF (Homogeneous Time-Resolved Fluorescence) cAMP detection kit (cAMP HI Range Assay Kit; CisBio cat #62AM6PEJ) that measures cAMP levels in the cell. The method is a competitive immunoassay between native cAMP produced by the cells and exogenous cAMP labeled with the dye d2, The tracer binding is visualized by a mAb anti-cAMP labeled with Cryptate. The specific signal (i.e. energy transfer) is inversely proportional to the concentration of cAMP in either standard or experimental sample.
The human GLP-1R coding sequence (NCBI Reference Sequence NP_002053.3, including naturally-occurring variant Gly168Ser) was subcloned into pcDNA3 (Invitrogen) and a cell line stably expressing the receptor was isolated (designated Clone H6).
(§1) A 1 mL sample of the cell suspension in growth media was counted on a Becton Dickinson ViCell to determine cell viability and cell count per mL. The remaining cell suspension was then adjusted with growth media to deliver 2000 viable cells per well using a Matrix Combi Multidrop reagent dispenser, and the cells were dispensed into a white 384 well tissue culture treated assay plate (Corning 3570). The assay plate was then incubated for 48 hours at 37° C. in a humidified environment in 5% carbon dioxide.
Varying concentrations of each compound to be tested (in DMSO) were diluted in assay buffer (HBSS with Calcium/Magnesium (Lonza/BioWhittaker cat #10-527F)/0.1% BSA (Sigma Aldrich cat #A7409-1L)/20 mM HEPES (Lonza/BioWhittaker cat #17-737E) containing 100 μM 3-isobutyl-1-methylxanthin (IBMX; Sigma cat #15879). The final DMSO concentration is 1%.
After 48 hours, the growth media was removed from the assay plate wells, and the cells were treated with 20 μL of the serially diluted compound in assay buffer for 30 minutes at 37° C. in a humidified environment in 5% carbon dioxide. Following the 30 minute incubation, 10 μL of labeled d2 cAMP and 10 μL of anti-cAMP antibody (both diluted 1:20 in cell lysis buffer; as described in the manufacturer's assay protocol) were added to each well of the assay plate. The plates were then incubated at room temperature and after 60 minutes, changes in the HTRF signal were read with an Envision 2104 multi-label plate reader using excitation of 330 nm and emissions of 615 and 665 nm. Raw data were converted to nM cAMP by interpolation from a cAMP standard curve (as described in the manufacturer's assay protocol) and the percent effect was determined relative to a saturating concentration of the full agonist GLP-17-36 (1 μM) included on each plate. EC50 determinations were made from agonist dose-response curves analyzed with a curve fitting program using a 4-parameter logistic dose response equation.

[2] = target: T2, human GLP-1R (Homo sapiens, UniProt P43220, L260F); assay: CHO GLP-1R Clone C6 - Assay 2 (HTRF cAMP agonist assay); format: cell-based; conditions: for EC50: CHO clone C6, low GLP-1R density, cAMP, geometric mean; for Emax: CHO clone C6, relative to saturating full agonist GLP-1 (1 μM), arithmetic mean
T2 construct: expressed in transfected cells; host or cells: CHO Flp-In T-REx, clonal line C6 (pcDNA5-FRT-TO)
T2 sequence (P43220 24-463 L260F): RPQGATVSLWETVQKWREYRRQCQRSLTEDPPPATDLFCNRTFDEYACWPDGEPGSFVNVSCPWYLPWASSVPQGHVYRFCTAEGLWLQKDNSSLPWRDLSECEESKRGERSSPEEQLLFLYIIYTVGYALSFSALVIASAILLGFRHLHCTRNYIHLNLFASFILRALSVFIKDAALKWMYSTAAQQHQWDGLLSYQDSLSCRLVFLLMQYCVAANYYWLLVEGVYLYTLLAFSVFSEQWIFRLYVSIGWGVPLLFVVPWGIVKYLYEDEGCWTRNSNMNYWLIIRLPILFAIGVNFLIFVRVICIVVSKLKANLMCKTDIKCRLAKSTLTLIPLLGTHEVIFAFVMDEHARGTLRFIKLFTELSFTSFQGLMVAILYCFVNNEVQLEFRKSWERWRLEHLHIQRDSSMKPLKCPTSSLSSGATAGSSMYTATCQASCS
Experimental: GLP-1R-mediated agonist activity was determined with a cell-based functional assay utilizing an HTRF (Homogeneous Time-Resolved Fluorescence) cAMP detection kit (cAMP HI Range Assay Kit; Cis Bio cat #62AM6PEJ) that measures cAMP levels in the cell. The method is a competitive immunoassay between native cAMP produced by the cells and exogenous cAMP labeled with the dye d2. The tracer binding is visualized by a mAb anti-cAMP labeled with Cryptate. The specific signal (i.e. energy transfer) is inversely proportional to the concentration of cAMP in either a standard or an experimental sample.
The human GLP-1R coding sequence (NCBI Reference Sequence NP_002053.3, including naturally-occurring variant Leu260Phe) was subcloned into pcDNA5-FRT-TO and a clonal CHO cell line stably expressing a low receptor density was isolated using the Flp-In™ T-Rex™ System, as described by the manufacturer (ThermoFisher).
as §1, with “deliver 1600” for “deliver 2000”, “48 h” for “48 hours”, “environment (95% O2,” for “environment in”, “5% CO2)” for “5% carbon dioxide.”
Varying concentrations of each compound to be tested (in DMSO) were diluted in assay buffer [HBSS with Calcium/Magnesium (Lonza/BioWhittaker cat #10-527F)/0.1% BSA (Sigma Aldrich cat #A7409-1L)/20 mM HEPES (Lonza/BioWhittaker cat #17-737E)] containing 100 μM 3-isobutyl-1-methylxanthin (IBMX; Sigma cat #15879). The final DMSO concentration in the compound/assay buffer mixture is 1%.
After 48 h, the growth media was removed from the assay plate wells, and the cells were treated with 20 μL of the serially diluted compound in assay buffer for 30 min at 37° C. in a humidified environment (95% O2, 5% CO2). Following the 30 min incubation, 10 μL of labeled d2 cAMP and 10 μL of anti-cAMP antibody (both diluted 1:20 in cell lysis buffer; as described in the manufacturer's assay protocol) were added to each well of the assay plate. The plates were then incubated at room temperature and after 60 minutes, changes in the HTRF signal were read with an Envision 2104 multi-label plate reader using excitation of 330 nm and emissions of 615 and 665 nm. Raw data were converted to nM cAMP by interpolation from a cAMP standard curve (as described in the manufacturer's assay protocol) and the percent effect was determined relative to a saturating concentration of the full agonist GLP-1 (1 μM) included on each plate. EC50 determinations were made from agonist dose response curves analyzed with a curve fitting program using a 4-parameter logistic dose response equation.

T1 sequence (P43220 24-463 G168S): as the sequence (P43220 24-463 L260F) above, with G145S, F237L counted along it

EC50 [1] [nM] | Emax [1] [%] | Assay 1 Emax (%) [1] [%] | EC50 [2] [nM] | Emax [2] [%] | SMILES
300 | 65 |  |  |  | COCCn1c(C2CC23CCN(c2nc(OCc4ccc(Cl)cc4F)ncc2F)CC3)nc2cnc(C(=O)O)cc21 (single isomer, unassigned) [Example 31, 2-(6-{2-[(4-chloro-2-fluorobenzyl)oxy]-5-fluoropyrimidin-4-yl}-6-azaspiro[2.5]oct-1-yl)-1-(2-methoxyethyl)-1H-imidazo[4,5-c]pyridine-6-carboxylic acid, trifluoroacetate salt, single enantiomer; from P7]
> 20000 |  |  |  |  | COCCn1c(C2CC23CCN(c2nc(OCc4ccc(Cl)cc4F)ncc2F)CC3)nc2cnc(C(=O)O)cc21 (single isomer, unassigned) [Example 32, 2-(6-{2-[(4-chloro-2-fluorobenzyl)oxy]-5-fluoropyrimidin-4-yl}-6-azaspiro[2.5]oct-1-yl)-1-(2-methoxyethyl)-1H-imidazo[4,5-c]pyridine-6-carboxylic acid, trifluoroacetate salt, single enantiomer; from C23]
3400 |  | 89 |  |  | O=C(O)c1ccc2nc(C3CC34CCN(c3nc(OCc5ccc(Cl)cc5F)ncc3F)CC4)n(CCn3cncn3)c2c1 (single isomer, unassigned) [Example 42, 2-(6-{2-[(4-chloro-2-fluorobenzyl)oxy]-5-fluoropyrimidin-4-yl}-6-azaspiro[2.5]oct-1-yl)-1-[2-(1H-1,2,4-triazol-1-yl)ethyl]-1H-benzimidazole-6-carboxylic acid, trifluoroacetate salt, from C23]
2600 | 56 |  |  |  | COCCn1c(C2CC23CCN(c2cccc(OCc4ccc(Cl)cc4F)n2)CC3)nc2ncc(C(=O)O)cc21 (single isomer, unassigned) [Example 48, 2-(6-{6-[(4-chloro-2-fluorobenzyl)oxy]pyridin-2-yl}-6-azaspiro[2.5]oct-1-yl)-1-(2-methoxyethyl)-1H-imidazo[4,5-b]pyridine-6-carboxylic acid, ENT-1]
> 9700 | 100 |  |  |  | COCCn1c(C2CC23CCN(c2ccnc(OCc4ccc(Cl)cc4F)n2)CC3)nc2ccc(C(=O)O)cc21 (single isomer, unassigned; ent-1) [Example 46, Ammonium 2-(6-{2-[(4-chloro-2-fluorobenzyl)oxy]pyrimidin-4-yl}-6-azaspiro[2.5]oct-1-yl)-1-(2-methoxyethyl)-1H-benzimidazole-6-carboxylate, ENT-1]
43 |  | 74 |  |  | N#Cc1ccc(COc2nc(N3CCC4(CC3)CC4c3nc4ccc(C(=O)O)cc4n3CC3CCO3)c(F)cc2F)c(F)c1 (single isomer, unassigned; ent-2) [Example 58]
 |  |  | 42 | 95 | N#Cc1ccc(COc2ncccc2C2CCN(Cc3nc4ccc(C(=O)O)cc4n3C[C@@H]3CCO3)CC2)c(F)c1 [Example 5, 2-[(4-{2-[(4-cyano-2-fluorobenzyl)oxy]pyridin-3-yl}piperidin-1-yl)methyl]-1-[(2S)-oxetan-2-ylmethyl]-1H-benzimidazole-6-carboxylic acid]
 |  |  | 220 | 100 | Cn1nncc1Cn1c(CN2CCC(c3cccnc3OCc3ccc(Cl)cc3F)CC2)nc2ccc(C(=O)O)cc21 [Example 10, 2-[(4-{2-[(4-chloro-2-fluorobenzyl)oxy]pyridin-3-yl}piperidin-1-yl)methyl]-1-[(1-methyl-1H-1,2,3-triazol-5-yl)methyl]-1H-benzimidazole-6-carboxylic acid, trifluoroacetate salt]
 |  |  | 59 | 100 | N#Cc1ccc(COc2ncccc2C2CCN(Cc3nc4ccc(C(=O)O)nc4n3C[C@@H]3CCO3)CC2)c(F)c1 [Example 18, ammonium 2-[(4-{2-[(4-cyano-2-fluorobenzyl)oxy]pyridin-3-yl}piperidin-1-yl)methyl]-3-[(2S)-oxetan-2-ylmethyl]-3H-imidazo[4,5-b]pyridine-5-carboxylate]
 |  |  | 150 | 98 | N#Cc1ccc(COc2nccnc2C2CCN(Cc3nc4ccc(C(=O)O)cc4n3C[C@@H]3CCO3)CC2)c(F)c1 [Example 28, ammonium 2-[(4-{3-[(4-cyano-2-fluorobenzyl)oxy]pyrazin-2-yl}piperidin-1-yl)methyl]-1-[(2S)-oxetan-2-ylmethyl]-1H-benzimidazole-6-carboxylate]
1800 | 65 |  |  |  | Cn1c(CN2CCC(c3nccnc3OCc3ccc(Cl)cc3F)CC2)nc2cnc(C(=O)O)cc21 [Example 29, 2-[(4-{3-[(4-Chloro-2-fluorobenzyl)oxy]pyrazin-2-yl}piperidin-1-yl)methyl]-1-methyl-1H-imidazo[4,5-c]pyridine-6-carboxylic acid, trifluoroacetate salt]
1900 | 92 |  |  |  | C[C@H]1CN(c2nccnc2OCc2ccc(Cl)cc2F)CCN1Cc1nc2ccc(C(=O)O)nc2n1C [Example 34, 2-{[(2S)-4-{3-[(4-Chloro-2-fluorobenzyl)oxy]pyrazin-2-yl}-2-methylpiperazin-1-yl]methyl}-3-methyl-3H-imidazo[4,5-b]pyridine-5-carboxylic acid, trifluoroacetate salt]
170 | 110 |  |  |  | Cn1cnc(Cn2c(CN3CCC(c4ccnc(OCc5ccc(Cl)cc5F)n4)CC3)nc3ccc(C(=O)O)cc32)c1 [Example 66, 2-[(4-{2-[(4-chloro-2-fluorobenzyl)oxy]pyrimidin-4-yl}piperidin-1-yl)methyl]-1-[(1-methyl-1H-imidazol-4-yl)methyl]-1H-benzimidazole-6-carboxylic acid]
700 | 79 |  |  |  | C[C@H]1CN(c2nc(OCc3ccc(C#N)cc3)ncc2F)CCN1Cc1nc2ccc(C(=O)O)cc2n1CCC(F)(F)F [Example 70, ammonium 2-{[(2S)-4-{2-[(4-cyanobenzyl)oxy]-5-fluoropyrimidin-4-yl}-2-methylpiperazin-1-yl]methyl}-1-(3,3,3-trifluoropropyl)-1H-benzimidazole-6-carboxylate]
